Measured values: ChEMBL document CHEMBL1149774, “Synthesis of N-(5,7-diamino-3-phenyl-quinoxalin-2-yl)-3,4,5-substituted anilines and N-[4[(5,7-diamino-3-phenylquinoxalin-2-yl)amino]benzoyl]-l-glutamic acid diethyl ester: evaluation of in vitro anti-cancer and anti-folate activities” (Eur J Med Chem, 2008)
Active and inactive are the calls of the source. The calls are words filed in the database; no cut-off is given here.

Key:
[1] = test system: HOP-92; test: Growth inhibition of human HOP92 cells after 48 hrs by SRB staining method; assay type: functional; conditions: HOP-92, 48 h; for TGI: read-out: pTGI (converted)
[2] = test system: COLO 205; test: Growth inhibition of human COLO205 cells after 48 hrs by SRB staining method; assay type: functional; conditions: COLO 205, 48 h; for TGI: read-out: pTGI (converted)
[3] = test system: HCT-116; test: Growth inhibition of human HCT116 cells after 48 hrs by SRB staining method; assay type: functional; conditions: HCT-116, 48 h; for TGI: read-out: pTGI (converted)
[4] = test system: SF-295; test: Growth inhibition of human SF295 cells after 48 hrs by SRB staining method; assay type: functional; conditions: SF-295, 48 h; for TGI: read-out: pTGI (converted)
[5] = test system: SF-539; test: Growth inhibition of human SF539 cells after 48 hrs by SRB staining method; assay type: functional; conditions: SF-539, 48 h; for TGI: read-out: pTGI (converted)
[6] = test system: Malme-3M; test: Growth inhibition of human MALME-3M cells after 48 hrs by SRB staining method; assay type: functional; conditions: for TGI: read-out: pTGI (converted)
[7] = test system: M14; test: Growth inhibition of human M14 cells after 48 hrs by SRB staining method; assay type: functional; conditions: M14, 48 h; for TGI: read-out: pTGI (converted)
[8] = test system: UACC-257; test: Growth inhibition of human UACC257 cells after 48 hrs by SRB staining method; assay type: functional; conditions: UACC-257, 48 h; for TGI: read-out: pTGI (converted)
[9] = test system: IGROV-1; test: Growth inhibition of human IGROV1 cells after 48 hrs by SRB staining method; assay type: functional; conditions: IGROV-1, 48 h; for TGI: read-out: pTGI (converted)
[10] = test system: OVCAR-3; test: Growth inhibition of human OVCAR-3 cells after 48 hrs by SRB staining method; assay type: functional; conditions: OVCAR-3, 48 h; for TGI: read-out: pTGI (converted)
[11] = test system: OVCAR-4; test: Growth inhibition of human OVCAR4 cells after 48 hrs by SRB staining method; assay type: functional; conditions: OVCAR-4, 48 h; for TGI: read-out: pTGI (converted)
[12] = test system: OVCAR-5; test: Growth inhibition of human OVCAR5 cells after 48 hrs by SRB staining method; assay type: functional; conditions: OVCAR-5, 48 h; for TGI: read-out: pTGI (converted)
[13] = test system: CAKI-1; test: Growth inhibition of human CAKI1 cells after 48 hrs by SRB staining method; assay type: functional; conditions: CAKI-1, 48 h; for CC50: read-out: pLC50 (the source's name) (converted); for TGI: read-out: pTGI (converted)
[14] = test system: TK-10; test: Growth inhibition of human TK10 cells after 48 hrs by SRB staining method; assay type: functional; conditions: TK-10, 48 h; for CC50: read-out: pLC50 (the source's name) (converted); for TGI: read-out: pTGI (converted)
[15] = test system: PC-3; test: Growth inhibition of human PC3 cells after 48 hrs by SRB staining method; assay type: functional; conditions: PC-3, 48 h; for CC50: read-out: pLC50 (the source's name) (converted); for TGI: read-out: pTGI (converted)
[16] = test system: MCF7; test: Growth inhibition of human MCF7 cells after 48 hrs by SRB staining method; assay type: functional; conditions: MCF7, 48 h; for CC50: read-out: pLC50 (the source's name) (converted); for TGI: read-out: pTGI (converted)
[17] = test system: MDA-MB-231; test: Growth inhibition of human MDA-MB-231 cells after 48 hrs by SRB staining method; assay type: functional; conditions: MDA-MB-231, 48 h; for CC50: read-out: pLC50 (the source's name) (converted); for TGI: read-out: pTGI (converted)
[18] = test system: MDA-MB-435; test: Growth inhibition of human MDA-MB-435 cells after 48 hrs by SRB staining method; assay type: functional; conditions: MDA-MB-435, 48 h; for CC50: read-out: pLC50 (the source's name) (converted); for TGI: read-out: pTGI (converted)
[19] = test system: BT-549; test: Growth inhibition of human BT549 cells after 48 hrs by SRB staining method; assay type: functional; conditions: BT-549, 48 h; for CC50: read-out: pLC50 (the source's name) (converted); for TGI: read-out: pTGI (converted)
[20] = test system: T47D; test: Growth inhibition of human T47D cells after 48 hrs by SRB staining method; assay type: functional; conditions: for CC50: read-out: pLC50 (the source's name) (converted); for TGI: read-out: pTGI (converted)
[21] = target: T1, Dihydrofolate reductase (Homo sapiens) (UniProt P00374); test: Inhibition of human dihydrofolate reductase at 10 uM
T1 sequence (whole entry): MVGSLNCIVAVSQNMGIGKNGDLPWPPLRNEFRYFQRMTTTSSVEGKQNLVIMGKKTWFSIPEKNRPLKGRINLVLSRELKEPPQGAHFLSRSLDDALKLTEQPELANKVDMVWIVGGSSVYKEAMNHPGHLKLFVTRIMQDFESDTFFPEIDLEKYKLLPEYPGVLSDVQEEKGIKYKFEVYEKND

[22] = test system: CCRF-CEM; test: Growth inhibition of human CCRF-CEM cells after 48 hrs by SRB staining method; assay type: functional; conditions: for CC50: read-out: pLC50 (the source's name) (converted); for TGI: read-out: pTGI (converted)
[23] = test system: HL-60; test: Growth inhibition of human HL60 cells after 48 hrs by SRB staining method; assay type: functional; conditions: HL-60, 48 h; for CC50: read-out: pLC50 (the source's name) (converted); for TGI: read-out: pTGI (converted)
[24] = test system: MOLT-4; test: Growth inhibition of human MOLT4 cells after 48 hrs by SRB staining method; assay type: functional; conditions: MOLT-4, 48 h; for CC50: read-out: pLC50 (the source's name) (converted); for TGI: read-out: pTGI (converted)
[25] = target: T2, Thymidylate synthase (Lactobacillus casei, UniProt P00469)
T2 sequence (P00469 whole entry): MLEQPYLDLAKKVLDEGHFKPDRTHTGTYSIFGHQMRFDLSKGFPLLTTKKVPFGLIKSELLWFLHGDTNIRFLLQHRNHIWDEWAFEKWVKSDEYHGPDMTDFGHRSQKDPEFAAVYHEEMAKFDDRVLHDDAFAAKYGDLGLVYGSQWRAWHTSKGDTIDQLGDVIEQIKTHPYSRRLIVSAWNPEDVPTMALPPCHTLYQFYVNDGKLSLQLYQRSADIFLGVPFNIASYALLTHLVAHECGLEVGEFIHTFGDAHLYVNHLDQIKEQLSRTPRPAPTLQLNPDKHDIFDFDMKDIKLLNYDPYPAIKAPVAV
Description: Inhibition of Lactobacillus casei thymidylate synthase

[26] = target: Thymidylate synthase (Homo sapiens, UniProt P04818)
Chain of Thymidylate synthase (Homo sapiens, UniProt P04818) (P04818 whole entry): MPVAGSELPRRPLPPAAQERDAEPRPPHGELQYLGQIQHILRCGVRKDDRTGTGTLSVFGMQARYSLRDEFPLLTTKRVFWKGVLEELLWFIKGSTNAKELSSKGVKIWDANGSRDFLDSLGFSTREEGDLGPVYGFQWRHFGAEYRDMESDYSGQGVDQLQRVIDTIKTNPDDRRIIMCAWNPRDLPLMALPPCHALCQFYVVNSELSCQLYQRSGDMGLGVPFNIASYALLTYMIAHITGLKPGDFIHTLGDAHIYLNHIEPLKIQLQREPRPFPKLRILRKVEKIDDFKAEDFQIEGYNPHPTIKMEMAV
Description: Inhibition of human thymidylate synthase

[27] = test system: HT-29; test: Growth inhibition of human HT29 cells after 48 hrs by SRB staining method; assay type: functional; conditions: HT-29, 48 h
[28] = target: T3, Dihydrofolate reductase (Homo sapiens, UniProt P00374); test: Inhibition of human dihydrofolate reductase
T3 sequence (P00374 whole entry): T1 sequence (whole entry)

[29] = test system: MDA-N; test: Growth inhibition of human MDA-N cells after 48 hrs by SRB staining method; assay type: functional

CCOC(=O)CCC(NC(=O)c1ccc(Nc2nc3cc(N)cc(N)c3nc2-c2ccccc2)cc1)C(=O)OCC (centres undefined)
GI50 [1]: 10.7 µM
LC50 [1]: 81.3 µM
TGI [1]: 29.5 µM
GI50 [2]: 8.91 µM
LC50 [2]: > 100 µM
TGI [2]: > 100 µM
GI50 [3]: 15.1 µM
LC50 [3]: > 100 µM
TGI [3]: 51.3 µM
GI50 [4]: 17.8 µM
LC50 [4]: > 100 µM
TGI [4]: 43.7 µM
GI50 [5]: 27.5 µM
LC50 [5]: > 100 µM
TGI [5]: > 100 µM
GI50 [6]: 2.82 µM
LC50 [6]: > 100 µM
TGI [6]: 6.17 µM
GI50 [7]: 2.51 µM
LC50 [7]: 75.9 µM
TGI [7]: 5.89 µM
GI50 [8]: 2 µM
LC50 [8]: > 100 µM
TGI [8]: 4.9 µM
GI50 [9]: 6.31 µM
LC50 [9]: > 100 µM
TGI [9]: 89.1 µM
GI50 [10]: 8.51 µM
LC50 [10]: > 100 µM
TGI [10]: 31.6 µM
GI50 [11]: 26.9 µM
LC50 [11]: > 100 µM
TGI [11]: > 100 µM
GI50 [12]: 34.7 µM
LC50 [12]: > 100 µM
TGI [12]: 87.1 µM
GI50 [13]: 27.5 µM
CC50 [13]: > 100 µM
TGI [13]: > 100 µM
GI50 [14]: 33.1 µM
CC50 [14]: > 100 µM
TGI [14]: 75.9 µM
GI50 [15]: 21.4 µM
CC50 [15]: > 100 µM
TGI [15]: 91.2 µM
GI50 [16]: 29.5 µM
CC50 [16]: > 100 µM
TGI [16]: > 100 µM
GI50 [17]: 8.91 µM
CC50 [17]: 81.3 µM
TGI [17]: 28.2 µM
GI50 [18]: 12 µM
CC50 [18]: > 100 µM
TGI [18]: 36.3 µM
GI50 [19]: 41.7 µM
CC50 [19]: > 100 µM
TGI [19]: > 100 µM
GI50 [20]: 1.66 µM
CC50 [20]: > 100 µM
TGI [20]: 4.9 µM
Activity [21]: inactive
GI50 [22]: 2.95 µM
CC50 [22]: > 100 µM
TGI [22]: > 100 µM
GI50 [23]: 9.55 µM
CC50 [23]: > 100 µM
TGI [23]: 51.3 µM
GI50 [24]: 2.4 µM
CC50 [24]: > 100 µM
TGI [24]: 7.41 µM
Ki [25]: 27 µM
Ki [26]: 34 µM

COc1cc(Nc2nc3cc(N)cc(N)c3nc2-c2ccccc2)cc(OC)c1OC
GI50 [1]: 2.75 µM
LC50 [1]: 91.2 µM
TGI [1]: 20.9 µM
GI50 [2]: 14.1 µM
LC50 [2]: 52.5 µM
TGI [2]: 26.9 µM
GI50 [3]: 15.5 µM
LC50 [3]: 75.9 µM
TGI [3]: 33.9 µM
GI50 [27]: 33.1 µM
LC50 [27]: 74.1 µM
TGI ([27]; read-out: pTGI (converted)): 34.7 µM
GI50 [4]: 15.8 µM
LC50 [4]: > 100 µM
TGI [4]: 42.7 µM
GI50 [5]: 14.8 µM
LC50 [5]: 56.2 µM
TGI [5]: 28.8 µM
GI50 [6]: 12.9 µM
LC50 [6]: 61.7 µM
TGI [6]: 28.2 µM
GI50 [7]: 19.5 µM
LC50 [7]: > 100 µM
TGI [7]: 44.7 µM
GI50 [8]: 29.5 µM
LC50 [8]: > 100 µM
TGI [8]: > 100 µM
GI50 [9]: 15.8 µM
LC50 [9]: > 100 µM
TGI [9]: 57.5 µM
GI50 [10]: 14.1 µM
LC50 [10]: 97.7 µM
TGI [10]: 37.2 µM
GI50 [11]: 0.0316 µM
LC50 [11]: 25.7 µM
TGI [11]: 0.891 µM
GI50 [12]: 21.4 µM
LC50 [12]: > 100 µM
TGI [12]: 46.8 µM
GI50 [13]: 15.5 µM
CC50 [13]: > 100 µM
TGI [13]: 49 µM
GI50 [14]: 24 µM
CC50 [14]: > 100 µM
TGI [14]: 66.1 µM
GI50 [15]: 14.1 µM
CC50 [15]: > 100 µM
TGI [15]: 58.9 µM
GI50 [16]: 25.7 µM
CC50 [16]: > 100 µM
TGI [16]: 95.5 µM
GI50 [17]: 11.2 µM
CC50 [17]: 77.6 µM
TGI [17]: 29.5 µM
GI50 [18]: 7.41 µM
CC50 [18]: 69.2 µM
TGI [18]: 24.5 µM
GI50 [19]: 17 µM
CC50 [19]: 67.6 µM
TGI [19]: 17 µM
GI50 [20]: 6.03 µM
CC50 [20]: 95.5 µM
TGI [20]: 31.6 µM
Ki [28]: 0.1 µM
GI50 [29]: 10.5 µM
CC50 ([29]; read-out: pLC50 (the source's name) (converted)): 93.3 µM
TGI ([29]; read-out: pTGI (converted)): 31.6 µM
GI50 [22]: 4.37 µM
CC50 [22]: > 100 µM
TGI [22]: 41.7 µM
GI50 [23]: 6.61 µM
CC50 [23]: 64.6 µM
TGI [23]: 23.4 µM
GI50 [24]: 2.57 µM
CC50 [24]: 56.2 µM
TGI [24]: 18.2 µM
Ki [26]: 51 µM
